Where “and” joins values, the source holds several entries; their conditions need not be identical. Identical values can stand only once.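 All cell lines were grown in 96-well plates and treated with compound for 48 hours. GI50 marks 50% less growth.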 Calls of active or inactive are those of the source. No stated cut-off is given here; in the data, active = GI50 up to about 1.1 µM and inactive = higher.
What was measured:
Test in all cases: NCI-60 cell line screen, 48 h
NCI-H522 = system: NCI-H522
SF-539 = system: SF-539
HCT-15 = system: HCT-15
MDA-MB-435 = system: MDA-MB-435
UACC-62 = system: UACC-62
OVCAR-4 = system: OVCAR-4
NCI-H23 = system: NCI-H23
UACC-257 = system: UACC-257
MCF7 = system: MCF7
RXF 393 = system: RXF 393
NCI-H460 = system: NCI-H460
SNB-19 = system: SNB-19
Malme-3M = system: Malme-3M
SK-MEL-28 = system: SK-MEL-28
A498 = system: A498
HOP-92 = system: HOP-92
BT-549 = system: BT-549
EKVX = system: EKVX
MDA-MB-231 = system: MDA-MB-231

Structure (SMILES) | GI50 (NCI-H522) | GI50 (SF-539) | GI50 (HCT-15) | GI50 (MDA-MB-435) | GI50 (UACC-62) | GI50 (OVCAR-4) | GI50 (NCI-H23) | GI50 (UACC-257) | GI50 (MCF7) | GI50 (RXF 393) | GI50 (NCI-H460) | GI50 (SNB-19) | GI50 (Malme-3M) | GI50 (SK-MEL-28) | GI50 (A498) | GI50 (HOP-92) | GI50 (BT-549) | GI50 (EKVX) | GI50 (MDA-MB-231)
CC(N/N=C(\S)N1CCN(c2ccccn2)CC1)c1nccc2ccccc12 (configuration not stated) | 0.0782 µM (active) | 0.646 µM (active) | 0.641 µM | 1.66 µM (inactive) | 0.305 µM (active) | 0.678 µM (active) | 1.79 µM (inactive) | 0.0318 µM (active) | 1.07 µM (active) | 0.908 µM (active) | 0.593 µM (active) | 2.56 µM (inactive) | 1.03 µM (active) | 2.61 µM (inactive) | 5.71 µM (inactive) | 0.957 µM (active) | 10.4 µM (inactive) | – | –
C=CC[C@@]12CCC(=O)C=C1CCCC2=O | > 100 µM (inactive) | > 100 µM (inactive) | > 100 µM | > 100 µM (inactive) | > 100 µM (inactive) | > 100 µM (inactive) | > 100 µM (inactive) | > 100 µM (inactive) | > 100 µM (inactive) | > 100 µM (inactive) | > 100 µM (inactive) | > 100 µM (inactive) | > 100 µM (inactive) | > 100 µM (inactive) | > 100 µM (inactive) | > 100 µM (inactive) | – | > 100 µM (inactive) | > 100 µM (inactive)
COC(=O)Cc1ccc(Oc2nc3ccccc3nc2-c2cccs2)cc1 | > 100 µM (inactive) | 52 µM (inactive) | > 100 µM | > 100 µM (inactive) | > 100 µM (inactive) | > 100 µM (inactive) | > 100 µM (inactive) | > 100 µM (inactive) | > 100 µM (inactive) | 19.1 µM (inactive) | > 100 µM (inactive) | 40.8 µM (inactive) | > 100 µM (inactive) | > 100 µM (inactive) | – | 24.2 µM (inactive) | 57.8 µM (inactive) | > 100 µM (inactive) | 27.2 µM (inactive)
Cc1nc(-c2cc3c(ccc4ccccc43)oc2=O)cs1 | 35.2 µM (inactive) | 43.3 µM (inactive) | > 100 µM | > 100 µM (inactive) | 26 µM (inactive) | 37.7 µM (inactive) | – | > 100 µM (inactive) | > 100 µM (inactive) | 35.8 µM (inactive) | 91.8 µM (inactive) | 33.2 µM (inactive) | 76.2 µM (inactive) | > 100 µM (inactive) | – | 30.2 µM (inactive) | 23.7 µM (inactive) | 35.8 µM (inactive) | 70.5 µM (inactive)
COC(=O)c1ccc(-c2nc(C#N)c(N)o2)cc1 | 39.4 µM (inactive) | > 100 µM (inactive) | > 100 µM | > 100 µM (inactive) | – | > 100 µM (inactive) | 35.8 µM (inactive) | > 100 µM (inactive) | > 100 µM (inactive) | > 100 µM (inactive) | > 100 µM (inactive) | 34.7 µM (inactive) | > 100 µM (inactive) | > 100 µM (inactive) | – | – | 23.8 µM (inactive) | > 100 µM (inactive) | 27.1 µM (inactive)
Cc1cn(CC2=NCC(C)(C)CN2)c(=O)[nH]c1=O | > 100 µM (inactive) | – | > 100 µM | – | > 100 µM (inactive) | – | > 100 µM (inactive) | > 100 µM (inactive) | > 100 µM (inactive) | > 100 µM (inactive) | > 100 µM (inactive) | > 100 µM (inactive) | > 100 µM (inactive) | > 100 µM (inactive) | > 100 µM (inactive) | > 100 µM (inactive) | > 100 µM (inactive) | > 100 µM (inactive) | > 100 µM (inactive)
COc1ccc(-c2cc(-c3cc(F)c(Cl)cc3Cl)[nH]n2)cc1OC | 20.2 µM (inactive) | 15.9 µM (inactive) | 21.2 µM | 46.2 µM (inactive) | – | 32.4 µM (inactive) | 30 µM (inactive) | 32.7 µM (inactive) | – | 15.1 µM (inactive) | 32.1 µM (inactive) | 49.4 µM (inactive) | 30.4 µM (inactive) | 48.6 µM (inactive) | – | 20.6 µM (inactive) | 30.2 µM (inactive) | 22.2 µM (inactive) | 30.4 µM (inactive)
O=C(O)c1cc2ccccc2c(/N=N/c2c([N+](=O)[O-])cc([N+](=O)[O-])cc2S(=O)(=O)O)c1O | > 100 µM (inactive) | – | > 100 µM | > 100 µM (inactive) | > 100 µM (inactive) | > 100 µM (inactive) | > 100 µM (inactive) | > 100 µM (inactive) | – | > 100 µM (inactive) | – | > 100 µM (inactive) | > 100 µM (inactive) | > 100 µM (inactive) | – | > 100 µM (inactive) | > 100 µM (inactive) | > 100 µM (inactive) | > 100 µM (inactive)
Cn1c(N/N=C/c2ccccc2)nc(-c2ccc([N+](=O)[O-])cc2)c(C#N)c1=O | 23.1 µM (inactive) | 69.2 µM (inactive) | 30.5 µM | > 100 µM (inactive) | 27.9 µM (inactive) | 29 µM (inactive) | 44.3 µM (inactive) | 50 µM (inactive) | 13.1 µM (inactive) | 53.8 µM (inactive) | 32.1 µM (inactive) | > 100 µM (inactive) | 33.1 µM (inactive) | > 100 µM (inactive) | 65.8 µM (inactive) | 16.5 µM (inactive) | – | 66.7 µM (inactive) | 19.5 µM (inactive)
CC1OC(OC2C(OC(=O)[C@]34CCC(C)(C)C[C@H]3C3=CC[C@@H]5[C@@]6(C)CC[C@H](OC7OC(CO)C(O)C(O)C7OC7OC(CO)C(O)C(O)C7O)C(C)(C)[C@@H]6CC[C@@]5(C)[C@]3(C)CC4)OCC(O)C2O)C(O)C(O)C1OC1OCC(O)C(OC2OCC(O)C(O)C2O)C1O (some centres not stated) | 2.65 µM (inactive) and 2.49 µM (inactive) | 29.2 µM (inactive) and 19.5 µM (inactive) | 12.9 µM and 13 µM | 1.67 µM (inactive) and 1.94 µM (inactive) | 2.21 µM (inactive) and 2.5 µM (inactive) | 7.19 µM (inactive) and 5.41 µM (inactive) | 2.42 µM (inactive) and 3.1 µM (inactive) | 2.22 µM (inactive) and 2.33 µM (inactive) | – | 9.86 µM (inactive) and 6.75 µM (inactive) | 15.7 µM (inactive) and 17.7 µM (inactive) | 7.89 µM (inactive) and 7.41 µM (inactive) | 2.49 µM (inactive) and 2.52 µM (inactive) | 2.09 µM (inactive) and 2.18 µM (inactive) | 2.17 µM (inactive) and 2.02 µM (inactive) | 1.92 µM (inactive) and 2.15 µM (inactive) | 3.51 µM (inactive) and 3.82 µM (inactive) | 2.44 µM (inactive) and 2.97 µM (inactive) | 3.14 µM (inactive) and 2.84 µM (inactive)
O=C1C(Cl)=C(Nc2ccc(S(=O)(=O)O)cc2)C(=O)c2ccccc21 | 18.2 µM (inactive) | 19.9 µM (inactive) | 35.2 µM | 21.7 µM (inactive) | 64.4 µM (inactive) | 38.5 µM (inactive) | 37.7 µM (inactive) | 40 µM (inactive) | 20.9 µM (inactive) | 19.7 µM (inactive) | 33.6 µM (inactive) | 24.6 µM (inactive) | 20.1 µM (inactive) | 32.1 µM (inactive) | – | 17.3 µM (inactive) | 76.2 µM (inactive) | 15.7 µM (inactive) | 60.7 µM (inactive)

Reference: ChEMBL document CHEMBL1201862, “PubChem BioAssay data set” (2004)
